Test results reported in patent US20100280098A1, “RECEPTOR TARGETED OLIGONUCLEOTIDES” (priority 2007, published 2010).
“Also recorded” adds a separate entry of the source.

How the values were obtained:
αvβ3 = assay: Cell surface αvβ3 level by immunostaining and flow cytometry; format: cell-based, human; settings: 200 nM, 24 h exposure
Method: Then, αvβ3 levels were determined by immunostaining with anti-αvβ3 antibody. […] The y axis of each panel indicates the number of cells, while the x axis indicates the log of fluorescence intensity.
(§1) Cell Uptake, Confocal Fluorescence Microscopy, and Flow Cytometry: Total cellular uptake of Tamra-labeled oligonucleotides was monitored using a Nanodrop microfluorimeter (Nanodrop Technologies, Wilmington, Del., United States of America). After treatment with oligonucleotides the cells were lysed in a mild non-ionic detergent buffer and the Tamra fluorescence (emission 583 nm) was quantitated based on a linear standard curve of unconjugated Tamra in buffer. Intracellular distribution of Tamra-labeled oligonucleotides was examined using an Olympus Confocal FV300 fluorescent microscope (Olympus America Inc., Center Valley, Pa., United States of America) with 60X-oil immersion objective, as previously described. See Astriab-Fisher et al. (2004) Biochem. Pharmacol., 68, 403-407. Expression levels of αvβ3 were monitored by immunostaining with an anti-human-αvβ3 monoclonal (Chemicon, Temecula, Calif., United States of America) followed by an Alexa 488 rabbit antimouse secondary antibody, with analysis by flow cytometry using a DakoCytomation (Glostrop, Denmark) machine.

A375SM-Luc705-B cells [1] = assay: Subcellular distribution and co-localization by confocal fluorescence microscopy (peptide conjugate); format: cell-based; settings: living cells; 200 nM, complex 100 nM
Description: as §1

A375SM-Luc705-B cells [2] = assay: Short-term toxicity, viable cell count after 48 h (peptide conjugate); format: cell-based; settings: concentrations up to 1000 nM, 48 h
Method: Toxicity Studies: Cells were treated with various concentrations of oligonucleotides or conjugates under the same conditions as used for the luciferase induction experiments. After 48 h in medium plus 1% FBS, cells were trypsinized and viable cells were counted in an electronic particle counter.

Micrococcal nuclease = Micrococcal nuclease (Staphylococcus aureus, UniProt P00644); assay: Nuclease stability by polyacrylamide gel; format: in vitro ADME; settings: 0-12 h, 37° C.
Method: The reactions were then stopped by the addition of EDTA (50 mM), and the fluorescent samples were analyzed on 10% polyacrylamide gels and examined under long-wavelength ultraviolet illumination to detect possible nucleolytic cleavage of the Tamra-labeled oligonucleotides.

A375SM-Luc705-B cells [3] = assay: Confocal microscopy of live cells, albumin conjugates; format: cell-based; settings: 100 nM, 24 h
Method: Cellular Uptake and Confocal Microscopy: Cells were seeded onto either 12 well plates at 1×10^5 cells per well for cellular uptake measurements or in 12 well glass-bottom plates at 2×10^4 cells per well for live cell analysis by confocal microscopy. After treatment of cells with Tamra labeled oligonucleotide derivatives for 24 h, the cells were either lysed for measurement of Tamra fluorescence using a Nanodrop microfluorimeter (Nanodrop Technologies, Wilmington, Deleware, United States of America) or washed with DMEM containing 10% FBS and then placed in DMEM without phenol red, supplemented with 1% FBS, for confocal microscopy analysis. Co-localization of Tamra-labeled oligonucleotides with Alexa 488 labeled Transferrin or Dextran (Molecular Probes, Beaverton, Oreg., United States of America) in live cell was also examined by confocal microscopy. An Olympus confocal microscope with a 60× objective lens was used, and the data were processed using Fluoview software (Olympus, Center Valley, Pa., United States of America) as described in Example 1.

Substance: 5′-GTTATTCTTTAGAATGGTGC-Tamra-3′ [623-Tamra]
- level of surface αvβ3 expression (αvβ3): no effect
- cellular uptake seen by confocal microscopy (A375SM-Luc705-B cells [1]): relatively little uptake was observed; also recorded: Very little fluorescence related to cellular uptake of Tamra was observed
- short-term toxicity (viable cells) (A375SM-Luc705-B cells [2]): little effect
- stability to micrococcal nuclease (Micrococcal nuclease): gradual degradation
- intracellular Tamra fluorescence (A375SM-Luc705-B cells [3]): less intracellular fluorescene
- nuclear accumulation of Tamra fluorescence (A375SM-Luc705-B cells [3]): No Tamra fluorophore appeared to have accumulated in nuclei
- nuclear accumulation of Tamra fluorescence (A375SM-Luc705-B cells [3]; listed as 623 Tamra): no evidence of nuclear accumulation
